# Entries after “also recorded” stand apart in the source; their conditions may differ. Where two headings read alike, the source gives them in different places. Where no end group is shown, it is not given here.
# Legend:
# P. aeruginosa PAO1 = type: cell-based, Pseudomonas aeruginosa; conditions: PAO1, 24 h
# Protocol: (§1) Fig. 2 Antimicrobial activity and secondary structure of computationally designed peptides. a, Structure prediction of the synthesized peptides. b, Heatmap of the antimicrobial activities of the peptides against 11 clinically relevant pathogens, including four strains resistant to conventional antibiotics. Briefly, 10^6 bacterial cells and serially diluted peptides (1-64 μmol l^−1) were incubated at 37 °C. One day after treatment, the optical density at 600 nm was measured in a microplate reader to evaluate bacterial growth in the presence of the peptides. MIC values in the heatmap are the mode of the replicates in each condition. c–f, Ternary plots showing the percentage of secondary structure for each peptide (at 50 μmol l^−1) in four different solvents: water (c), 60% TFE in water (d), 10 mmol l^−1 SDS in water (e) and 50% methanol (MeOH) in water (f). Secondary structure fractions were calculated using the BeStSel server. […] An error of one column cannot be fully excluded. / Panel b: AT1, AT2, AT3 and all blank cells print no number and are left out.
# (§2) In this study, we used the following pathogenic bacterial strains: A. baumannii ATCC 19606, E. coli AIC221 (E. coli MG1655 phnE_2::FRT (control strain for AIC222)) and E. coli AIC222 (E. coli MG1655 pmrA53 phnE_2::FRT (polymyxin resistant; colistin-resistant strain)), Klebsiella pneumoniae ATCC 13883, Pseudomonas aeruginosa PAO1, P. aeruginosa PA14 and Staphylococcus aureus ATCC 12600. All pathogens were grown in Luria–Bertani (LB) broth and on LB agar. Pseudomonas isolation (P. aeruginosa strains) agar plates were exclusively used in the case of Pseudomonas species. In all the experiments, bacteria were inoculated from one isolated colony and grown overnight (16 h) in liquid medium at 37 °C. On the following day, inocula were diluted 1:100 in fresh media and incubated at 37 °C to mid-logarithmic phase.
# (§3) Broth microdilution assays[64] were conducted to establish the MIC for each peptide. […]
# A. baumannii ATCC 19606 [1] = assay: Skin abscess infection mouse model, bacterial load; type: in vivo, CD-1 mice; conditions: single dose at MIC on the wound 1 h after infection, n = 6
# Protocol: Fig. 4 Anti-infective activity of designed peptides in a skin scarification animal model. a, Schematic representation of the skin abscess mouse model used to assess the anti-infective activity of the designed peptides (n = 6) against A. baumannii ATCC 19606. […] Statistical significance in panel b was determined using one-way ANOVA followed by Dunnett’s test; P values are shown in the graphs. In the violin, the centre line represents the […], the box limits the first and third quartiles and the whiskers (minima and maxima) represent 1.5 × the interquartile range. Panel a created with BioRender.com. Source data
# The backs of six-week-old female CD-1 mice under anaesthesia were shaved and injured with a superficial linear skin abrasion made with a needle. An aliquot of A. baumannii ATCC 19606 (2 × 10^6 CFU ml^−1; 20 μl) previously grown in LB medium until 0.5 optical density ml^−1 (optical value at 600 nm) and then washed twice with sterile PBS (pH 7.4, 9,391 g for 3 min) was added to the scratched area. Peptides diluted in sterile water at MIC value were administered to the wound area 1 h after the infection. Two and four days after infection animals were euthanized, and the scarified skin was excised, homogenized using a bead beater (25 Hz for 20 min), tenfold serially diluted, and plated on McConkey agar plates for CFU quantification. […]
# [2] = system: E. faecium ATCC 700221 - VRE; type: cell-based; conditions: ATCC 700221, 24 h
# Protocol: as §1
# (§4) Broth microdilution assays[64] were conducted to establish the MIC for each peptide. Peptides were added to untreated polystyrene 96-well microtiter plates and serially diluted twofold in sterile water, ranging from 1 to 64 μmol l^−1. A bacterial inoculum at a concentration of 10^6 CFU ml^−1 in LB medium was then mixed in a 1:1 ratio with the peptide solution. […] Each assay was performed in three independent replicates.
# [3] = type: in vivo, CD-1 mice; conditions: deep thigh infection model
# Protocol: Six-week-old female CD-1 mice were rendered neutropenic by two doses of cyclophosphamide (150 mg kg^−1 and 100 mg kg^−1) applied intraperitoneally 3 and 1 d before the infection. On day 4 of the experiment, the mice were infected in their right thighs with a 100-μl intramuscular injection of the A. baumannii ATCC 19606 in PBS at concentration of 5 × 10^6 CFU ml^−1. The bacterial cells were grown in LB broth, washed twice with PBS solution and diluted at the desired concentration. The peptides were administrated intraperitoneally 2 h after the infection. Two days after infection mice were euthanized, and the tissue from the right thigh was excised, homogenized using a bead beater (25 Hz for 20 min), tenfold serially diluted, and plated on McConkey agar plates for bacterial colony counting. The experiments were performed using six mice per group. […]
# Figure S6. […] Mouse weight was monitored throughout the duration of the (b) skin abscess model (4 days total) and the (e) deep thigh infection model (8 days total) to assess potential toxic effects of both the bacterial load and the designed peptides. […] Anti-infective activity against A. baumannii ATCC 19606 was evaluated 4 days after intraperitoneal peptide administration (n = 6). […]
# (§5) Statistical significance in panel d was determined using one-way ANOVA followed by Dunnett’s test; P values are shown in the graphs. […]
# A. baumannii ATCC 19606 [4] = assay: Deep thigh infection mouse model, bacterial load; type: in vivo, CD-1 mice; conditions: n = 6; for reduction of A. baumannii bacterial load, deep thigh infection model: neutropenic mice, peptides intraperitoneally
# Protocol: Six-week-old female CD-1 mice were rendered neutropenic by two doses of cyclophosphamide (150 mg kg^−1 and 100 mg kg^−1) applied intraperitoneally 3 and 1 d before the infection. On day 4 of the experiment, the mice were infected in their right thighs with a 100-μl intramuscular injection of the A. baumannii ATCC 19606 in PBS at concentration of 5 × 10^6 CFU ml^−1. The bacterial cells were grown in LB broth, washed twice with PBS solution and diluted at the desired concentration. The peptides were administrated intraperitoneally 2 h after the infection. Two days after infection mice were euthanized, and the tissue from the right thigh was excised, homogenized using a bead beater (25 Hz for 20 min), tenfold serially diluted, and plated on McConkey agar plates for bacterial colony counting. The experiments were performed using six mice per group. Mice were housed in groups of three and maintained under a 12-h light/dark cycle at 22 °C with humidity controlled at 50%. The deep thigh infection mouse model was revised and approved by University Laboratory Animal Resources from the University of Pennsylvania (protocol 807055).
# (§6) Figure S6. Cytotoxicity and anti-infective activity of designed peptides. (a) Cytotoxic effects of increasing concentrations ([…]) of each peptide on human embryonic kidney (HEK293T) cells after 24 h of treatment. Mouse weight was monitored throughout the duration of the (b) skin abscess model (4 days total) and the (e) deep thigh infection model (8 days total) to assess potential toxic effects of both the bacterial load and the designed peptides. (c) Schematic of the neutropenic thigh infection mouse model, where the designed peptides were administered intraperitoneally. Anti-infective activity against A. baumannii ATCC 19606 was evaluated 4 days after intraperitoneal peptide administration (n = 6). (d) Four days after intraperitoneal injection, NE2 at its MIC (32 µmol L-1) inhibited by […]
# as §5
# E. coli ATCC 11775 = type: cell-based, Escherichia coli; conditions: ATCC 11775, 24 h
# Protocol: as §1
# Broth microdilution assays[64] were conducted to establish the MIC for each peptide. Peptides were added to untreated polystyrene 96-well microtiter plates and serially diluted twofold in sterile water, ranging from 1 to 64 μmol l^−1. […]
# A. baumannii ATCC 19606 [5] = type: cell-based, Acinetobacter baumannii
# Protocol: as §1, §2, §4
# K. pneumoniae ATCC 13883 = type: cell-based, Klebsiella pneumoniae; conditions: ATCC 13883, 24 h
# Protocol: as §1, §2, §4
# [6] = Mouse weight in the skin abscess model; set-up: species or system CD-1 mice; conditions: in vivo
# Protocol: The backs of six-week-old female CD-1 mice under anaesthesia were shaved and injured with a superficial linear skin abrasion made with a needle. An aliquot of A. baumannii ATCC 19606 (2 × 10^6 CFU ml^−1; 20 μl) previously grown in LB medium until 0.5 optical density ml^−1 (optical value at 600 nm) and then washed twice with sterile PBS (pH 7.4, 9,391 g for 3 min) was added to the scratched area. Peptides diluted in sterile water at MIC value were administered to the wound area 1 h after the infection. Two and four days after infection animals were euthanized, and the scarified skin was excised, homogenized using a bead beater (25 Hz for 20 min), tenfold serially diluted, and plated on McConkey agar plates for CFU quantification. The experiments were performed using six mice per group. Mice were housed in groups of three and maintained under a 12-h light/dark cycle at 22 °C with humidity controlled at 50%. The skin abscess infection mouse model was revised and approved by University Laboratory Animal Resources from the University of Pennsylvania (protocol 806763).
# as §6, §5
# HEK293T cells = conditions: cited from earlier work
# Protocol: Cytotoxicity was evaluated using human embryonic kidney (HEK293T) cells (Fig. 3e)[45].
# P. aeruginosa PA14 = type: cell-based, Pseudomonas aeruginosa; conditions: PA14, 24 h
# Protocol: as §1, §2, §3
# A. baumannii ATCC 19606 [7] = assay: Cytoplasmic-membrane depolarization, DiSC3-5; type: cell-based, Acinetobacter baumannii; conditions: DiSC3-5 fluorescence, peptides at their MIC, 60 min
# Protocol: Fig. 3 Mechanism of action and cytotoxic activity of designed peptides. a, To assess whether the peptides act on bacterial membranes, all active peptides against A. baumannii American Type Culture Collection (ATCC) 19606 were subjected to outer-membrane permeabilization, and peptides active against A. baumannii ATCC 19606 and vancomycin-resistant E. faecalis ATCC 700802 were tested in cytoplasmic-membrane depolarization assays. b, The fluorescent probe NPN was used to assess membrane permeabilization induced by the tested peptides. c,d, The fluorescent probe DiSC3-5 was used to evaluate membrane depolarization caused by the designed peptides in A. baumannii ATCC 19606 (c) and vancomycin-resistant E. faecalis ATCC 700802 (d). […] All experiments were performed in three independent replicates. […]
# The cytoplasmic-membrane depolarization assay was performed using the membrane-potential-sensitive dye DiSC3-5. […] Membrane depolarization was then followed by reading changes in the fluorescence (λex = 622 nm, λem = 670 nm) over time for 60 min. The relative fluorescence was calculated using the untreated control (buffer + bacteria + fluorescent dye) as baseline and the following equation was applied to reflect the percentage difference between the baselines and the sample: percentagedifference=100×(fluorescencesample−fluorescenceuntreatedcontrol)/fluorescenceuntreatedcontrol. […]
# E. coli AIC221 = type: cell-based, Escherichia coli; conditions: AIC221, 24 h
# Protocol: as §1, with “out. […]” for “out.”
# [8] = broth microdilution, LB, 10^6 CFU ml^-1, peptides 1-64 μmol l^-1, 24 h, 37 °C, OD600, mode of three replicates
sequence,measurement,setting,value
KWKARIQFKAAH [NE2],MIC,P. aeruginosa PAO1,64 µM
same,"reduction of A. baumannii bacterial load, skin abscess model",A. baumannii ATCC 19606 [1],up to two orders of magnitude; also recorded: inhibited the proliferation of the infection for up to 4 d after treatment
same,MIC,[2],32 µM
same,weight loss or skin damage,[3],No weight loss or skin damage
same,inhibition of the A. baumannii ATCC19606 infection against the untreated control,"A. baumannii ATCC 19606 [4]; four days after intraperitoneal injection, at its MIC",one order of magnitude
same,"reduction of A. baumannii bacterial load, deep thigh infection model",A. baumannii ATCC 19606 [4],up to two orders of magnitude
same,MIC,E. coli ATCC 11775,16 µM
same,MIC,"A. baumannii ATCC 19606 [5]; ATCC 19606, 24 h",32 µM
same,MIC,A. baumannii ATCC 19606 [5]; [8],32 µM
same,MIC,K. pneumoniae ATCC 13883,16 µM
same,weight loss or skin damage,[6],No weight loss or skin damage
KWRLLIRWRIQK [IDR-2009],cytotoxicity of the parental peptide,HEK293T cells,did show cytotoxicity
HWKLIVRWKVQH [NG1],MIC,P. aeruginosa PAO1,32 µM
same,MIC,P. aeruginosa PA14,16 µM
same,"reduction of A. baumannii bacterial load, skin abscess model",A. baumannii ATCC 19606 [1],up to two orders of magnitude; also recorded: inhibited the proliferation of the infection for up to 4 d after treatment
same,MIC,[2],4 µM
same,weight loss or skin damage,[3],No weight loss or skin damage
same,"reduction of A. baumannii bacterial load, deep thigh infection model",A. baumannii ATCC 19606 [4],up to two orders of magnitude
same,MIC,E. coli ATCC 11775,16 µM
same,MIC,"A. baumannii ATCC 19606 [5]; ATCC 19606, 24 h",4 µM
same,MIC,A. baumannii ATCC 19606 [5]; [8],4 µM
same,MIC,K. pneumoniae ATCC 13883,4 µM
same,weight loss or skin damage,[6],No weight loss or skin damage
KFKLIVHYRICK [NG3],cytoplasmic-membrane depolarization,A. baumannii ATCC 19606 [7],particularly effective
same,MIC,E. coli AIC221,8 µM
same,MIC,"A. baumannii ATCC 19606 [5]; ATCC 19606, 24 h",32 µM
same,MIC,K. pneumoniae ATCC 13883,16 µM

# From publication PMC12552119, “Tailored structured peptide design with a key-cutting machine approach” (Nature Machine Intelligence, 2025)
